Data taken from BigSolDB 2.1.

Nc1cccc2c1C(=O)N(C1CCC(=O)NC1=O)C2=O (stereo unspecified)
solubility (mole fraction)
Details | 278.15 K | 283.15 K | 288.15 K | 293.15 K | 298.15 K | 303.15 K | 308.15 K | 313.15 K | 318.15 K
in acetone | 1.43e-06 | 2e-06 | 2.59e-06 | 3.32e-06 | 4.27e-06 | 5.32e-06 | 6.53e-06 | 7.84e-06 | 9.49e-06
in ethanol | 1.8e-07 | 2.4e-07 | 3.1e-07 | 4.1e-07 | 5.3e-07 | 6.8e-07 | 8.5e-07 | 1.04e-06 | 1.26e-06
in ethyl acetate | 4.5e-07 | 6.6e-07 | 9.3e-07 | 1.21e-06 | 1.55e-06 | 1.95e-06 | 2.38e-06 | 2.96e-06 | 3.62e-06
in isopropanol | 2.3e-07 | 3.4e-07 | 4.8e-07 | 6.3e-07 | 8.1e-07 | 1.02e-06 | 1.26e-06 | 1.56e-06 | 1.9e-06
